In one experiment the test system is Caco-2 cells. Put plainly: Gene expression (qRT-PCR) in intestinal epithelial (Caco-2) cells. It counts as cell-based, human. The note with it: 50 μM, 24 h. (In general: In qPCR the cycle at which signal appears reflects the starting amount.)
The test system of the next experiment is Caco-2 monolayers. Nature of the experiment: Caco-2 permeability and taurocholate transport in transwell system. The note with it: 50 μM, 24 h, p value<0.001. Type of experiment: cell-based, human. As for the experimental part:
The Caco-2 human adenocarcinoma cell line and Eagle's Minimum Essential Medium (EMEM) were purchased from ATCC (American Type Culture Collection, Rockville, Md.). Caco-2 cells were seeded on transwell inserts (0.4 μm pore size, Corning, N.Y.) at a density of 1.5×10^5 cells/mL and cultured for 23 days with media changes 3 times per week. On day 23, the cells were treated with either isotype control antibody (100 μg/mL), FGF19 (gp120, Genentech Inc., CA) (500 ng/mL), anti-FGF19 (100 μg/mL), DCA (Sigma-Aldrich, St. Louis, Mo.) (50 μM) or DCA (50 μM) plus anti-FGF19 (100 μg/mL) for 24 h prior to the permeability experiments. The monolayers were equilibrated for 30 min in transport buffer (HBSS with 10 mM HEPES, pH 7.4) at 37° C. and the transepithelial electrical resistance [TEER cm2), membrane area 1.12 cm^2] of each well was measured using the volt-ohm meter and STX-2 electrode. The permeabilities of lucifer yellow (LY), and taurocholate were evaluated in the apical to basolateral (A-B) direction. […] The apparent permeability for taurocholate, and LY (Papp) was calculated using the following equation: Papp=dQ/dt×1/C0A where dQ/dt is the rate of compound appearance in the receiver compartment, C0 is the concentration in the donor compartment and A is the surface area of the insert. […]

The structures appear in SMILES notation.

On to `C[C@H](CCC(=O)O)[C@H]1CC[C@H]2[C@@H]3CC[C@@H]4C[C@H](O)CC[C@]4(C)[C@H]3C[C@H](O)[C@]12C` [DCA, deoxycholic acid], for which the IBABP expression increase in the experiment on Caco-2 cells (p value<0.0001) is given as above 30 fold. The same compound showed an Ost-α expression increase in the experiment on Caco-2 cells (p value<0.0015) of 2 fold. Moreover, in the experiment on Caco-2 cells (p value<0.05), the Ost-β expression increase is reported as 1.3 fold. Further, the “taurocholate uptake, reduction vs. control” value in the experiment on Caco-2 monolayers is −80%.
